According to publication PMC7221806, “PF74 and Its Novel Derivatives Stabilize Hexameric Lattice of HIV-1 Mature-Like Particles” (Molecules, 2020):

Columns and labels:
[1] = Cytotoxicity, resazurin assay; format: cell-based; conditions: human, HEK 293T cells, 24 h treatment
HIV-1 [2] = assay: microbe, parasite or virus in culture; format: cell-based; conditions: for IC50: Human immunodeficiency virus 1, HEK293, 48 h
[3] = Cytotoxic effect on OMK cells; format: cell-based; conditions: owl monkey, OMK (owl monkey kidney) cells
HIV-1 CANC [4] = biological target: T1, HIV-1 CANC (Human immunodeficiency virus type 1 group M subtype B, UniProt P12493); assay: Disassembly inhibitor test for HIV (DITH), stability of preassembled CANC particles, with TEM; conditions: 10 µM; for relative stability of HIV-1 CANC assemblies in disassembly buffer: CANC without inhibitor in disassembly buffer = 0%; for TEM of CANC particles after incubation in disassembly buffer: after DITH, negative staining
HIV-1 CANC [5] = biological target: T1, HIV-1 CANC; assay: Fast Assembly Inhibitor Test for HIV (FAITH), in vitro assembly of mature-like particles, with TEM; conditions: 10 µM; for TEM phenotype of CANC assembled in presence of inhibitor: after FAITH, negative staining
HIV-1 [6] = format: cell-based; conditions: OMK cells, 10 µM, 2.5 µM CsA

Compound	CC50 at 24 h [1] [µM]	inhibitory activity against HIV-1 compared with PF74 (in words) (HIV-1 [2])	IC50 (HIV-1 [2]) [µM]	CC50 [3] [µM]	stabilization of HIV-1 CANC compared with PF74 (in words) (HIV-1 CANC [4])	relative stability of HIV-1 CANC assemblies in disassembly buffer (HIV-1 CANC [4])	TEM of CANC particles after incubation in disassembly buffer (HIV-1 CANC [4])	TEM phenotype of CANC assembled in presence of inhibitor (HIV-1 CANC [5])	effect on HIV-1 infectivity / uncoating in CsA-washout assay (in words) (HIV-1 [6])	effect on assembly of mature-like CANC particles (in words) (HIV-1 CANC [5]; CANC without inhibitor = 100%)
CN(C(=O)[C@H](Cc1ccccc1)NC(=O)NCc1nc2ccccc2[nH]1)c1ccccc1 [D10, (S)-2-(3-((1H-benzo[d]imidazol-2-yl)methyl)ureido)-N-methyl-N,3-diphenylpropanamide]	10 ± 1.6	better inhibitory activity against HIV-1 than PF74	0.5 ± 0.3	< 3	more potent stabilizers than PF74	90%	intact CANC particles	predominant formation of cone-like and shorter tubular structures	–	–
CN(C(=O)[C@H](Cc1ccccc1)NC(=O)Cc1n[nH]c2ccccc12)c1ccccc1 [D9, (S)-2-(2-(1H-indazol-3-yl)acetamido)-N-methyl-N,3-diphenylpropanamide]	> 40	only slightly weaker than that of PF74	3.4 ± 0.9	–	more potent stabilizers than PF74	80%	intact CANC particles	–	highly active during the first two hours post infection, then its activity dropped	–
COc1ccc2c(c1)c(CC(=O)N[C@@H](Cc1ccccc1)C(=O)N(C)c1ccccc1)c(C)n2C(=O)c1ccc(Cl)cc1 [D2, (S)-2-(2-(1-(4-chlorobenzoyl)-5-methoxy-2-methyl-1H-indol-3-yl)acetamido)-N-methyl--N,3-diphenylpropanamide]	> 40	–	8 ± 1.2	–	lower effect on HIV-1 CANC stability than PF74	–	mainly disassembled material	–	–	–
CN(C(=O)[C@H](Cc1ccccc1)NC(=O)[C@H]1Cc2ccccc2C(=O)N1C)c1ccccc1 [D8R, (R)-2-methyl-N-((S)-1-(methyl(phenyl)amino)-1-oxo-3-phenylpropan-2-yl)-1-oxo--1,2,3,4-tetrahydroisoquinoline-3-carboxamide]	> 40	only slightly weaker than that of PF74	4.5 ± 1.5	–	lower effect on HIV-1 CANC stability than PF74	–	mainly disassembled material	–	major effect	–
CC(C)Cc1ccc([C@@H](C)C(=O)N[C@@H](Cc2ccccc2)C(=O)N(C)c2ccccc2)cc1 [D4R, (S)-2-((R)-2-(4-isobutylphenyl)propanamido)-N-methyl-N,3-diphenylpropanamide]	27 ± 3.5	–	> 20	–	lower effect on HIV-1 CANC stability than PF74	–	mainly disassembled material	–	–	–
CN(C(=O)[C@H](Cc1ccccc1)NC(=O)Cc1c[nH]c2ccccc12)c1ccccc1 [D1, (S)-2-(2-(1H-indol-3-yl)acetamido)-N-methyl-N,3-diphenylpropanamide]	> 40	only slightly weaker than that of PF74	3.5 ± 0.6	–	only slightly less active in stabilization than PF74	–	–	–	strongest impact on HIV-1 infectivity in OMK cells at the early stage of HIV-1 infection	–
CN(C(=O)[C@H](Cc1ccccc1)NC(=O)[C@@H]1Cc2ccccc2C(=O)N1)c1ccccc1 [D7, (S)-N-((S)-1-(methyl(phenyl)amino)-1-oxo-3-phenylpropan-2-yl)-1-oxo-1,2,3,4--tetrahydroisoquinoline-3-carboxamide]	> 40	–	> 20	–	lower effect on HIV-1 CANC stability than PF74	–	mainly disassembled material	long, tubular structures	–	–
CN(C(=O)[C@H](Cc1ccccc1)NC(=O)[C@@H]1Cc2ccccc2C(=O)N1C)c1ccccc1 [D8S, (S)-2-methyl-N-((S)-1-(methyl(phenyl)amino)-1-oxo-3-phenylpropan-2-yl)-1-oxo--1,2,3,4-tetrahydroisoquinoline-3-carboxamide]	> 40	–	> 20	–	lower effect on HIV-1 CANC stability than PF74	–	mainly disassembled material	–	–	–
Cc1[nH]c2ccccc2c1CC(=O)N[C@@H](Cc1ccccc1)C(=O)N(C)c1ccccc1 [PF74]	> 40	–	1.75 ± 0.5	–	–	about 60%	intact CANC particles	predominant formation of cone-like and shorter tubular structures	strongest impact on HIV-1 infectivity in OMK cells at the early stage of HIV-1 infection	no effect
